Measured values: patent US20260242416A1, “ANTIMICROBIAL PEPTIDES” (priority 2023, published 2026)
Converted amounts (≈) assume the structure as drawn. “Also recorded” adds a separate entry of the source. Like-named read-outs stand apart in the source and are kept apart here. Where a SMILES comes first, the peptide text is derived from it.

Tests used:
[1] = tested on: Escherichia coli ATCC 25922; assay: Antimicrobial susceptibility testing (MIC/MBC), Example 1; assay type: cell-based; details: Table 3; footnote: wild-type Escherichia coli ATCC 29522; minimum of three independent experiments
Experimental: Twenty-one putative AMP sequences identified using the rAMPage pipeline were validated through a minimum of three AST experiments performed independently on separate days. In these tests, the AMP activity was assessed using two metrics: minimum inhibitory concentration and minimum bactericidal concentration (MIC and MBC, respectively). MIC and MBC values were determined using procedures outlined by the Clinical and Laboratory Standards Institute (CLSI), with the recommended adaptations for the testing of cationic AMPs described previously. “Wild-type” strains of Escherichia coli (E. coli 25922) and Staphylococcus aureus (S. aureus 29213) were purchased from the American Type Culture Collection (ATCC; Manassas, VA, USA) and were used for screening of antimicrobial activity. Briefly, putative AMPs were synthesized by Genscript (Piscataway, NJ, USA) and received in lyophilized format. These peptides were suspended using ultrapure water (Life Technologies, Grand Island, NY, USA; Invitrogen cat #10977-015), and an 11 μL two-fold serial dilution of 1280 to 2.5 μg/mL was prepared in duplicate rows in a 96-well microtiter plate, before being combined with 100 μL standardized bacterial inoculum yielding a final duplicate testing range of 128 to 0.25 μg/mL. The bacterial inoculum was prepared using colonies isolated on non-selective agar and combined with Mueller Hinton Broth. This suspension was measured and adjusted to achieve an optical density of 0.08-0.1, equivalent to a 0.5 McFarland standard (1-2×10^8 cfu/mL). The inoculum was then diluted to a target concentration of 5±3×10^5 cfu/mL; total viable counts from the final inoculum were routinely performed to confirm the target bacterial density was achieved. […] The MIC and adjacent wells were plated onto non-selective agar; the concentration in which killed 99.9% of the inoculum following additional overnight incubation was determined to be the MBC.

[2] = tested on: E. coli ATCC 25922, Salmonella Enteritidis, S. aureus ATCC 29213; assay: Broth microdilution, panel result (at least one / all strains), Example 2; assay type: cell-based; parameters: key to inhibitory activity (asterisk): *Indicates inhibitory activity; details: for inhibitory activity (asterisk): Table 14, against at least one of E. coli ATCC 25922, Salmonella Enteritidis, S. aureus ATCC 29213; for spectrum of antimicrobial activity: panel of E. coli, Salmonella Enteritidis, S. aureus, up to 128 μg/mL
Outline: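 CLSI broth microdilution adapted for cationic peptides, in MHB with a final inoculum of 2-8×10^5 cfu/mL in polypropylene plates. Peptides were serially diluted from 128 down to 0.5 μg/mL and incubated 20-24 h at 37° C. MIC is the lowest concentration with no visible growth.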

HEK293 cells = assay: alamarBlue cell viability assay (cytotoxicity); assay type: cell-based, human; details: concentrations up to 128 μg/mL
Experimental: (§1) The human embryonic kidney cell line HEK293 and the corresponding growth media and supplements were purchased from the ATCC. The cells were maintained in Eagle's Minimum Essential Medium (EMEM) supplemented with 10% fetal bovine serum (FBS) and 1% Penicillin-Streptomycin solution and grown in a 5% CO2 incubator at 37° C. […] Cells were incubated overnight to allow them to adhere. […] TX-100 was diluted to 2% in UltraPure deionized water and added as a positive control. Complete growth medium was added to the peptides and TX-100 containing wells. Spent growth medium of wells with adhered cells was replaced with the contents of wells containing serially diluted peptides or TX-100. Cells were incubated for four hours at 37° C. in 5% CO2 incubator. Growth medium containing peptides or TX-100 was replaced with fresh growth medium containing 10% (v/v) alamarBlue (Bio-Rad Laboratories, Hercules, CA, USA) and incubated for 20 h. Fluorescence was measured at excitation of 540 nm and emission of 590 nm in a Cytation 5 plate reader (Agilent BioTek, Winooski, VT, USA) and results recorded and analyzed with Gen5 software (Agilent BioTek, Winooski, VT, USA). The average fluorescence reads of TX-100 and growth media only wells were used to calculate 0% and 100% cell viability, respectively. The percentage of viable cells at each peptide concentration was determined by Formula 1: […]

[3] = alamarBlue cell viability assay (cytotoxicity); assay type: cell-based, human; details: human, HEK293 cells; for viability at 4 h, 64 µg/mL: at 64 μg/mL; for viability at 4 h, 128 µg/mL: at 128 μg/mL
Experimental: as §1

E. coli ATCC 25922 = assay type: cell-based, Escherichia coli
Outline: (§2)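 MIC taken as lowest peptide level showing no visible growth after 20-24 h at 37° C. Twofold series 128-0.5 μg/mL in Mueller-Hinton broth, polypropylene plates, final inoculum 2-8×10^5 cfu/mL, per CLSI with cationic-peptide adaptations.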

[4] = tested on: Salmonella enterica serovar Enteritidis (human clinical isolate); assay type: cell-based; details: serovar Enteritidis (human clinical isolate)
Outline: as §2

S. aureus ATCC 29213 = assay type: cell-based, Staphylococcus aureus; details: for MIC (ug/mL) S. aureus: ATCC 29213
Outline: as §2

| Structure (SMILES) | MIC* (μg/mL) E. coli [1] [µg⁻¹ mL⁻¹] | inhibitory activity (asterisk) [2] | cytotoxicity (HEK293 cells) | viability at 4 h, 64 µg/mL [3] [%] | viability at 4 h, 128 µg/mL [3] [%] | MIC against E. coli (E. coli ATCC 25922) [µg/mL] | spectrum of antimicrobial activity [2] | MIC (ug/mL) S. Enteritidis [4] [µg/mL] | MIC (ug/mL) S. aureus (S. aureus ATCC 29213) [µg/mL] | MIC (ug/mL) E. coli (E. coli ATCC 25922; ATCC 25922) [µg/mL] | MIC against E. coli (E. coli ATCC 25922; ATCC 25922) [µg/mL] | MIC against Salmonella Enteritidis [4] [µg/mL] | MIC against S. aureus (S. aureus ATCC 29213) [µg/mL] |
| --- | --- | --- | --- | --- | --- | --- | --- | --- | --- | --- | --- | --- | --- |
| CC[C@H](C)[C@H](NC(=O)CN)C(=O)N[C@@H](CC(C)C)C(=O)N[C@@H](CC(=O)O)C(=O)N[C@H](C(=O)N[C@@H](CC(C)C)C(=O)N[C@@H](CCCCN)C(=O)N[C@@H](CCC(N)=O)C(=O)N[C@@H](CC(C)C)C(=O)NCC(=O)N[C@@H](CCCCN)C(=O)N[C@@H](C)C(=O)N[C@@H](C)C(=O)N[C@H](C(=O)N[C@@H](CCC(N)=O)C(=O)NCC(=O)N[C@@H](CC(C)C)C(=O)N[C@@H](CC(C)C)C(=O)N[C@@H](CO)C(=O)N[C@@H](CCCCN)C(=O)N[C@@H](C)C(=O)N[C@@H](C)C(=O)N[C@@H](CS)C(=O)N[C@@H](CCCCN)C(=O)N[C@@H](CC(C)C)C(=O)N[C@@H](C)C(=O)N[C@@H](CCCCN)C(=O)N[C@H](C(=O)N[C@@H](CS)C(=O)O)[C@@H](C)O)C(C)C)[C@@H](C)O [AmMa1] (H-GILDTLKQLGKAAVQGLLSKAACKLAKTC-OH; N-terminus and C-terminus assumed) | 2 to 4 | 12.* GILDTLKQLGKAAVQGLLSKAACKLAKTC | – | – | – | – | – | – | – | – | – | – | – |
| CC[C@H](C)[C@H](NC(=O)CNC(=O)[C@H](CCCNC(=N)N)NC(=O)[C@H](CC(C)C)NC(=O)[C@H](CC(C)C)NC(=O)CN)C(=O)N[C@@H](CC(C)C)C(=O)NCC(=O)N[C@@H](C)C(=O)NCC(=O)N[C@@H](CCCCN)C(=O)N[C@@H](CCCCN)C(=O)N[C@H](C(=O)N[C@H](C(=O)N[C@@H](CS)C(=O)NCC(=O)N[C@@H](CC(C)C)C(=O)N[C@@H](CO)C(=O)NCC(=O)N[C@@H](CC(C)C)C(=O)N[C@@H](CS)C(=O)O)C(C)C)[C@@H](C)CC [OdMa2] (H-GLLRGILGAGKKIVCGLSGLC-OH; N-terminus and C-terminus assumed) | – | 64.* GLLRGILGAGKKIVCGLSGLC | high levels of cytotoxicity at concentrations higher than their MICs | < 75 | ~0 | 4 (≈ 1.97 µM) | active against all three bacteria | 8 to 16 | 4 to 8 | – | – | – | – |
| CC(C)C[C@H](NC(=O)[C@H](CCCNC(=N)N)NC(=O)[C@@H]1CCCN1C(=O)[C@H](Cc1c[nH]cn1)NC(=O)[C@@H]1CCCN1C(=O)[C@@H]1CCCN1C(=O)[C@H](CCCNC(=N)N)NC(=O)[C@@H]1CCCN1C(=O)[C@@H]1CCCN1C(=O)[C@@H](NC(=O)[C@H](CCC(N)=O)NC(=O)[C@H](CCC(N)=O)NC(=O)[C@@H]1CCCN1C(=O)[C@H](CCCNC(=N)N)NC(=O)[C@@H]1CCCN1C(=O)[C@@H](N)CCCNC(=N)N)C(C)C)C(=O)N[C@@H](CCCNC(=N)N)C(=O)N[C@@H](CCCNC(=N)N)C(=O)O [PaVa1, RPRPQQVPPRPPHPRLRR] (H-RPRPQQVPPRPPHPRLRR-OH) | – | – | not to be toxic to HEK293 cells at any of the concentrations tested; also recorded: not toxic against either porcine erythrocytes or HEK293 cells | – | – | – | – | 4 to 8 | > 128 | 2 to 4 | 2 to 4 | 4 to 8 | – |
| CC(C)C[C@H](NC(=O)CNC(=O)[C@@H](NC(=O)[C@@H](NC(=O)CNC(=O)[C@H](CS)NC(=O)[C@H](CC(C)C)NC(=O)[C@@H](NC(=O)[C@H](CCCCN)NC(=O)[C@H](CCCCN)NC(=O)CNC(=O)[C@@H](NC(=O)CNC(=O)[C@H](CC(C)C)NC(=O)[C@@H](NC(=O)[C@H](CCCCN)NC(=O)CNC(=O)[C@H](CC(C)C)NC(=O)[C@H](CC(C)C)NC(=O)CN)C(C)C)C(C)C)C(C)C)C(C)C)[C@@H](C)O)C(=O)N[C@@H](CS)C(=O)O [PeNi1] (H-GLLGKVLGVGKKVLCGVTGLC-OH; N-terminus and C-terminus assumed) | – | 363.* GLLGKVLGVGKKVLCGVTGLC | high levels of cytotoxicity at concentrations higher than their MICs | < 75 | ~0 | 4 (≈ 1.99 µM) | active against all three bacteria | 8 to 16 | – | – | – | – | 4 (≈ 1.99 µM) |
| CC[C@H](C)[C@H](NC(=O)[C@H](CCCCN)NC(=O)CNC(=O)[C@H](CC(C)C)NC(=O)[C@H](CC(C)C)NC(=O)CN)C(=O)N[C@@H](CC(C)C)C(=O)NCC(=O)N[C@H](C(=O)NCC(=O)N[C@@H](CCCCN)C(=O)N[C@@H](CCCCN)C(=O)N[C@H](C(=O)N[C@@H](CC(C)C)C(=O)N[C@@H](CS)C(=O)NCC(=O)N[C@H](C(=O)N[C@@H](CO)C(=O)NCC(=O)N[C@@H](CC(C)C)C(=O)N[C@@H](CS)C(=O)O)C(C)C)C(C)C)C(C)C [PeNi9] (H-GLLGKILGVGKKVLCGVSGLC-OH; N-terminus and C-terminus assumed) | – | 32.* GLLGKILGVGKKVLCGVSGLC | low or no cytotoxicity at lower concentrations; also recorded: high levels of cytotoxicity at concentrations higher than their MICs | – | 0 | – | active against all three bacteria | 8 to 16 | 4 to 8 | 2 to 4 | – | – | – |
| CC[C@H](C)[C@H](NC(=O)[C@H](CC(C)C)NC(=O)[C@H](CCCCN)NC(=O)[C@H](CC(C)C)NC(=O)CNC(=O)CNC(=O)[C@H](CCCCN)NC(=O)[C@@H](NC(=O)[C@H](CC(C)C)NC(=O)[C@H](CCCCN)NC(=O)CNC(=O)[C@@H](NC(=O)[C@H](CC(C)C)NC(=O)CN)C(C)C)C(C)C)C(=O)NCC(=O)N[C@@H](Cc1c[nH]cn1)C(=O)N[C@H](C(=O)N[C@@H](C)C(=O)N[C@@H](CC(N)=O)C(=O)NCC(=O)O)C(C)C [RaSi1] (H-GLVGKLVKGGLKLIGHVANG-OH; N-terminus and C-terminus assumed) | – | 2.* GLVGKLVKGGLKLIGHVANG | – | – | – | – | – | > 128 | 64 to 128 | 8 to 16 | – | – | – |
| CC[C@H](C)[C@H](NC(=O)[C@H](CCCNC(=N)N)NC(=O)[C@H](CCCNC(=N)N)NC(=O)[C@@H]1CCCN1C(=O)[C@H](CS)NC(=O)[C@H](CS)NC(=O)[C@H](Cc1ccc(O)cc1)NC(=O)[C@H](CS)NC(=O)[C@H](CC(C)C)NC(=O)[C@@H](NC(=O)[C@H](CCCNC(=N)N)NC(=O)[C@@H](NC(=O)[C@H](Cc1ccccc1)NC(=O)[C@H](C)N)C(C)C)[C@@H](C)CC)C(=O)N[C@@H](CCCCN)C(=O)N[C@@H](CCCNC(=N)N)C(=O)N[C@@H](CCCNC(=N)N)C(=O)O [TeRu2, AFVRILCYCCPRRIKRR] (H-AFVRILCYCCPRRIKRR-OH; N-terminus and C-terminus assumed) | – | 994.* AFVRILCYCCPRRIKRR | – | – | – | – | – | > 128 | 128 (≈ 59.4 µM) | 64 to 128 | – | – | – |
